Measured values as given in PubChem BioAssay (NCI).
Several values for one entry are separate records, joined by “and”; a condition that tells them apart may be missing. Equal entries are not always repeated.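 Test compounds were applied to cells in 96-well plates for 48 hours at 5 doses. GI50 = concentration required for 50% inhibition of growth. TGI is the concentration that stops growth completely.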

How the values were obtained:
Assay in all cases: growth of human tumour cells (NCI), 48 h
OVCAR-8 ovarian = tested on: OVCAR-8 ovarian
SK-MEL-5 melanoma = tested on: SK-MEL-5 melanoma
IGROV1 ovarian = tested on: IGROV1 ovarian
PC-3 prostate = tested on: PC-3 prostate
EKVX NSCLC = tested on: EKVX NSCLC
CCRF-CEM leukemia = tested on: CCRF-CEM leukemia
NCI-H226 lung = tested on: NCI-H226 lung
HCT-15 colon = tested on: HCT-15 colon
RXF 393 renal = tested on: RXF 393 renal
NCI-H23 lung = tested on: NCI-H23 lung

Row | SMILES | TGI (OVCAR-8 ovarian) | TGI (SK-MEL-5 melanoma) | TGI (IGROV1 ovarian) | TGI (PC-3 prostate) | TGI (EKVX NSCLC) | TGI (CCRF-CEM leukemia) | TGI (NCI-H226 lung) | TGI (HCT-15 colon) | TGI (RXF 393 renal) | TGI (NCI-H23 lung) | GI50 (OVCAR-8 ovarian) | GI50 (SK-MEL-5 melanoma) | GI50 (IGROV1 ovarian) | GI50 (PC-3 prostate) | GI50 (EKVX NSCLC) | GI50 (CCRF-CEM leukemia) | GI50 (NCI-H226 lung) | GI50 (HCT-15 colon) | GI50 (RXF 393 renal) | GI50 (NCI-H23 lung)
1 | c1cc2n(n1)CCN2 | > 9400 µM | > 7740 µM | > 10000 µM | > 10000 µM | 6630 µM | 6680 µM | > 9350 µM | > 10000 µM | 9590 µM | 6720 µM |  |  |  |  |  |  |  |  |  | 
2 | CC1OC(OC2C[C@](O)(C(=O)CF)Cc3c(O)c4c(c(O)c32)C(=O)c2ccccc2C4=O)CC(N)C1O (stereo partly specified) | 0.231 µM | 0.0657 µM | 2.4 µM | 0.354 µM | 4.64 µM | 0.0133 µM | < 0.0171 µM | 0.514 µM | 0.268 µM | 0.169 µM |  |  |  |  |  |  |  |  |  | 
3 | CN(C)CCNC(=O)c1cc([N+](=O)[O-])cc2c1Oc1ccccc1O2 | > 100 µM | > 100 µM | > 100 µM | > 100 µM | > 100 µM | > 100 µM | 50 µM |  | 93.7 µM | > 100 µM |  |  |  |  |  |  |  |  |  | 
4 | O=[N+]([O-])c1ccc2c(c1)Cc1cc(N=Cc3ccc4c(c3)OCO4)ccc1-2 | > 100 µM | > 100 µM | > 100 µM | > 100 µM | > 100 µM | > 100 µM | > 100 µM | > 100 µM | > 100 µM | > 100 µM |  |  |  |  |  |  |  |  |  | 
5 | Cc1cc(NCCN(C(C)C)C(C)C)nc(/N=C(\N)Nc2ccc(Cl)c(C(F)(F)F)c2)n1 | 0.812 µM | 0.492 µM | 2.75 µM | 2.45 µM | 3.75 µM | 1.47 µM | 4.15 µM | 0.913 µM | 0.75 µM | 3.08 µM | 0.275 µM | 0.195 µM | 0.819 µM | 0.596 µM | 1.48 µM | 0.335 µM | 1.96 µM | 0.276 µM | 0.249 µM | 1.49 µM
6 | OCC(O)C(Cl)CCl (stereo unspecified) | > 100 µM | > 100 µM | > 100 µM | > 100 µM | > 100 µM | > 100 µM | > 100 µM | > 100 µM |  | > 100 µM |  |  |  |  |  |  |  |  |  | 
7 | O=C1c2cccc(NCCN=Cc3cc([N+](=O)[O-])ccc3O)c2C(=O)c2c(NCCN=Cc3cc([N+](=O)[O-])ccc3O)cccc21 | > 100 µM |  | > 100 µM | > 100 µM | > 100 µM | 9.89 µM | > 100 µM | > 100 µM | > 100 µM | > 100 µM | 2.55 µM |  | 2.62 µM | 3.25 µM | 16.1 µM | 0.963 µM | 3.34 µM | 30.3 µM | 7.01 µM | 5.8 µM
8 | Cc1cc(Cl)ccc1Nc1nc(C(F)(F)F)ccc1C(=O)N/N=C/c1ccc(Cl)cc1 | > 100 µM | 3.02 µM | 13.6 µM | 9.31 µM | 4.45 µM | 3.39 µM | 3.82 µM | 13.1 µM | 22.2 µM | 6.48 µM | 3.16 µM | 1.52 µM | 3.31 µM | 2.13 µM | 1.25 µM | 0.384 µM | 1.21 µM | 0.895 µM | 3.08 µM | 1.85 µM
9 | CNC(=O)c1cccc2cc(Oc3ccnc4cc(OCC5(N)CC5)c(OC)cc34)ccc12 | 27.4 µM | 26.7 µM | 28.2 µM | 25.9 µM | 34.5 µM | 29.7 µM | 23.2 µM | 20.2 µM | 20.4 µM | 28.9 µM | 8.77 µM | 13.4 µM | 7.63 µM | 11 µM | 14.6 µM | 4.78 µM | 1.02 µM | 6.56 µM | 4.42 µM | 11.2 µM
10 | N#CCCN(CCCN(CCCN(C(=O)Nc1ccccc1)c1ccccc1)C(=O)Nc1ccccc1)C(=O)Nc1ccccc1 | > 100 µM | > 100 µM | > 100 µM | > 100 µM | > 8.75 µM and 70.5 µM | > 8.75 µM and 43.1 µM | > 100 µM | > 100 µM | > 100 µM |  | 85.2 µM | > 100 µM | 31.7 µM | > 100 µM | 16.3 µM | 4.35 µM |  |  | > 100 µM | 
11 | COc1c(O)cc2oc(-c3ccc(O)cc3)cc(=O)c2c1O |  | 63.7 µM | 76.9 µM | > 100 µM | 98.1 µM | 65.1 µM | > 100 µM | > 100 µM | > 100 µM | > 100 µM |  |  |  |  |  |  |  |  |  | 
12 | O=C(Nc1cccc(-n2cc(-c3ccncc3)c(-c3cc(O)cc(Cl)c3)n2)c1)Nc1ccc(Cl)c(C(F)(F)F)c1 | 5.55 µM | 3.23 µM | 12.6 µM | 6.43 µM |  | 8.93 µM | 8.96 µM | 6.01 µM | 3.88 µM | 7.45 µM | 2.15 µM | 1.69 µM | 3.81 µM | 2.1 µM |  | 2.73 µM | 2.47 µM | 2.21 µM | 1.42 µM | 2.58 µM
13 | CCOC(=O)c1cc2c(n1Cc1cccc(OC)c1)-c1oncc1CCC2 | > 100 µM | 14.8 µM | > 100 µM | > 100 µM |  | > 100 µM | > 100 µM | > 100 µM | 6.89 µM | > 100 µM | 3.21 µM | 0.693 µM | 0.968 µM | 1.67 µM |  | 2.17 µM | 32.1 µM | 0.473 µM | 1.07 µM | 8.68 µM
14 | C#CC1(O)C(COP(=O)(O)OC(COCCCCCCCCCCCCCCCCCC)COP(=O)(O)OCC2OC(n3cc(F)c(=O)[nH]c3=O)CC2O)OC(n2ccc(N)nc2=O)C1O (stereo unspecified) | > 60.9 µM |  | 2.59 µM and 4.59 µM | 24.3 µM and 11.4 µM | > 35.2 µM and 71.4 µM | 15.3 µM and > 70.6 µM | 23.5 µM and 26 µM | > 74.9 µM and 34.4 µM | 17.3 µM and 22.5 µM | 20.7 µM and 33.1 µM | 0.0922 µM and 0.28 µM |  | 0.135 µM | 0.947 µM and 0.417 µM | 1.42 µM and 5.06 µM | 0.115 µM and 0.965 µM |  | 0.134 µM and 0.335 µM | 0.306 µM and 2.46 µM | 0.613 µM and 2.28 µM
15 | CCN(Cc1ccc(F)cc1)c1ccc(CO)c(F)c1 | > 84.5 µM | 24.2 µM | 5.03 µM | 94.6 µM |  | > 74.6 µM | 0.364 µM | > 88.1 µM | 25.9 µM | > 94.6 µM | 16.2 µM | 10.9 µM | 1.26 µM | 21.6 µM |  | 21.5 µM | 0.171 µM | 10.4 µM | 5.47 µM | 17.5 µM
16 | COC(=O)c1ccccc1OCc1cc(=O)oc2ccc(C)cc12 | > 100 µM | > 100 µM | > 100 µM | > 100 µM | > 100 µM | > 100 µM | > 100 µM | > 100 µM |  | > 100 µM |  |  |  |  |  |  |  |  |  | 
